Assays:
skin surface of human = experiment: Moisturizing effect: water content of skin surface in short-term use test of human volunteers (SKICON200); format: in vivo; conditions: for Water Content of Skin Surface, Mean (%) SD, relative value where the initial value was defined as 100%: 2.5 μL/cm^2, medial part of forearm, n = 4
Experimental: The moisturizing effects of the 1,5-AG are evaluated by a short-term use test of human volunteers. Specifically, with 5 males of ages of 26 to 34 as test individuals, an aqueous solution of a sample listed in Table 2 in a given concentration was applied in an amount of 2.5 μL/cm^2 at a medial part of forearm, and the water content of the skin surface was measured in accordance with the following method.
<Measurement of Water Content of Skin Surface>
Each test individual washed his medial part of forearm with a given detergent, and was conditioned for 15 minutes in a thermohygrostat (room temperature: 22° C., humidity: 45%). Thereafter, an initial value of the water content of the skin surface was measured with SKICON200 (manufactured by I.B.S. Co., Ltd., corneometer). Next, each of the test samples and purified water were coated according to a coating method. Further, uncoated sites were set. Water contents were measured immediately after the sample coating, after 15 minutes, after 30 minutes, and after 45 minutes. The water content of the uncoated sites was measured matching the measurement time at the sample-coated sites. The change in the water contents of each site to be tested was expressed in a relative value where an initial value was defined as 100%. The difference in the water content of skin surface in each test individual before and after the use of test samples was subjected to a significance test according to a Student-t test. The data for test individuals of which water contents of skin surface of the uncoated sites increased with passage of time were discarded as abnormal values, and the results calculated using the measurement values of four individuals are shown in Table 2 and FIG. 2.

normal human fibroblasts = experiment: Type I collagen synthesis of normal human fibroblasts (ELISA of culture supernatant; protein by BCA method); format: cell-based; conditions: for Type I Collagen, Mean S.D.: 24-hour culture, n = 6, untreated control 7.03 ± 0.25
Experimental: The action of 1,5-AG on the synthesis of type I collagen of dermal fibroblasts is evaluated. Specifically, normal human fibroblasts were spread on a 96-well microplate using Dulbecco's modified eagle medium (DMEM) containing 0.5% fetal bovine serum (FBS). The fibroblasts were cultured at 37° C. for 24 hours, and thereafter the medium was exchanged with a 0.5% FBS-containing DMEM containing a given concentration of samples. As a positive control (P.C.), the same treatment was carried out with magnesium ascorbyl phosphate. After the 24-hour culture in the sample-containing medium, the culture supernatant was collected and subjected to ELISA. Also, the amount of protein was measured in accordance with bicinchoninic acid (BCA) method with PIERCE (manufactured by Pierce Biotechnology Inc.).
The culture supernatant and the collagen solutions for calibration curve were each dispensed in each well of high-adsorbent ELISA plate, and allowed to coat at 4° C. over one day and night. Thereafter, the coated plate was blocked at 37° C. for 1 hour with a 1% bovine serum albumin (BSA) solution. The primary antibody reaction was carried out by diluting Anti-Human Collagen Type I antibody (manufactured by Bio-Rad Laboratories, Inc., Rabbit) with a 0.3% BSA solution, and the dilution was added to each well and allowed to react at 37° C. for 1 hour. The secondary antibody reaction was carried out by diluting Histofine MAX-PO® (manufactured by NICHIREI, Rabbit) with a phosphate buffer, and the dilution was added to each well, and allowed to react at 37° C. for 1 hour. Next, 0.3 mg/mL of phosphate-citrate buffer (0.1 M, pH 4.0) containing 2,2′-azinobis(3-ethylbenzothiazoline-6-sulfonic acid)diammonium salt (ABTS) and a 0.03% hydrogen peroxide was added to each well and allowed to react for 20 minutes, and the absorbance of the reaction mixture was measured at 405 nm with a microplate reader.
The amount of the collagen in the culture supernatant was calculated from the calibration curve prepared from commercially available collagen. By dividing the amount of collagen in the medium by the amount of proteins in all the cells, the amount of collagen synthesized per unit protein amount was calculated. The amount of collagen synthesized at each concentration was subjected to a significance test using a Student-t test, and a difference with an untreated control was evaluated.

Molecule	Water Content of Skin Surface, Mean (%) SD, relative value where the initial value was defined as 100% (skin surface of human; 2% aqueous solution, After 15 min) [%]	Water Content of Skin Surface, Mean (%) SD, relative value where the initial value was defined as 100% (skin surface of human; 2% aqueous solution, After 30 min) [%]	Water Content of Skin Surface, Mean (%) SD, relative value where the initial value was defined as 100% (skin surface of human; 2% aqueous solution, After 45 min) [%]	Water Content of Skin Surface, Mean (%) SD, relative value where the initial value was defined as 100% (skin surface of human; 2% aqueous solution, Immediately after Coating)	action on the water content of skin surface (moisturizing property) (skin surface of human; test sample of 2% 1,5-AG, human volunteers)	Type I Collagen, Mean S.D. (normal human fibroblasts; 313 μg/mL sample) [ng/μg protein]	Type I Collagen, Mean S.D. (normal human fibroblasts; 625 μg/mL sample) [ng/μg protein]	Type I Collagen, Mean S.D. (normal human fibroblasts; 1250 μg/mL sample) [ng/μg protein]	amount of type I collagen synthesized in the normal human fibroblasts (normal human fibroblasts; versus untreated control, Student-t test)	Water Content of Skin Surface, Mean (%) SD, relative value where the initial value was defined as 100% (skin surface of human; 1% aqueous solution, After 15 min) [%]	Water Content of Skin Surface, Mean (%) SD, relative value where the initial value was defined as 100% (skin surface of human; 1% aqueous solution, After 30 min) [%]	Water Content of Skin Surface, Mean (%) SD, relative value where the initial value was defined as 100% (skin surface of human; 1% aqueous solution, After 45 min) [%]	Water Content of Skin Surface, Mean (%) SD, relative value where the initial value was defined as 100% (skin surface of human; 1% aqueous solution, Immediately after Coating)
OC[C@H]1OC[C@H](O)[C@@H](O)[C@@H]1O [1,5-AG, 1,5-anhydro-D-glucitol]	154.2 ± 12.3	180.3 ± 36.2	176.7 ± 15.8	2,535.4 ± 749.6%	action of increasing the water content of skin surface	7.81 ± 0.60	8.28 ± 0.50	8.31 ± 0.49	significantly increased				
Sodium Hyaluronate [reference compound]										122.6 ± 15.7	116.9 ± 23.7	130.1 ± 10.3	3,101.8 ± 1,716.3%

From patent US20160022556A1, “1,5-ANHYDRO-D-GLUCITOL-CONTAINING COLLAGEN PRODUCTION ACCELERATOR” (NATIONAL UNIVERSITY CORPORATION UNIVERSITY OF TOYOMA, priority 2013, published 2016)
